# Data from US20060079453A1, “Hla binding peptides and their uses” (priority 2002, published 2006).
# Where two headings read alike, the source gives them in different places. No end group written: not given here.
# Key:
# Assay in all cases: biochemical
# Format in all cases: binding
# HLA-DR DRB1*0802 (DR8) = HLA-DR DRB1*0802 (DR8) (Homo sapiens, UniProt P01903+P01911, A100R/A103L/A169T/F76Y/H45Y/I96F/K41T/L162R/M171V/P40S/Q125H/Q178H/Q39Y/Q99D/R218S/R42G/S66Y/V115G/W38E)
# HLA-DR DRB1*0101 (DR1) = HLA-DR DRB1*0101 (DR1) (Homo sapiens, UniProt P01903+P01911, A100R/D57E/F55L/F60I/F76Y/I96L/L162R/M171V/P40L/Q125E/R42F/V115G/Y59C); details: DRB1 *0101
# HLA-DR DRB1*0301 (DR3) = HLA-DR DRB1*0301 (DR3) (Homo sapiens, UniProt P01903+P01911, A100K/A102G/A103R/A169T/F55Y/I96L/K41T/L162R/M171V/P40S/Q125H/Q178H/Q39Y/R42S/S66N/T106N/T262R/W38E/Y61H)
# HLA-DR DRB1*0901 (DR9) = HLA-DR DRB1*0901 (DR9) (Homo sapiens, UniProt P01903+P01911, A100R/A103E/D57H/D86V/F55Y/F60I/F76Y/I96F/K127E/L162R/M171V/P40D/Q125H/Q99R/R33Q/R42F/S133A/S66N/T210M/V115G/W38K/Y107V/Y59G/Y89S); details: DRB1 *0901
# HLA-DR DRB3*0101 (DR52) = HLA-DR DRB3*0101 (DR52) (Homo sapiens, UniProt P01903+P79483)
# HLA-DR DRB1*1101 (DR11) = HLA-DR DRB1*1101 (DR11) (Homo sapiens, UniProt P01903+P01911, A100R/A169T/A87E/I96F/K41T/L162R/M171V/P40S/Q125H/Q178H/Q39Y/Q99D/R42S/S66Y/T262R/V115G/W38E); details: DRB1 *1101
# HLA-DR DRB4*0101 (DR53) = HLA-DR DRB4*0101 (DR53) (Homo sapiens, UniProt P01903+P13762, G164S); details: DRB4 *0101
# HLA-DR DRB1*0701 (DR7) = HLA-DR DRB1*0701 (DR7) (Homo sapiens, UniProt P01903+P01911, A100R/A102G/A103Q/D57E/D86V/E43K/F76Y/K127E/L162R/M171V/P40G/Q125H/Q99D/R33Q/R42Y/R54Q/S133A/S66F/T210M/V115G/Y107V/Y59L/Y89S); details: DRB1 *0701
# HLA-DR DRB5*0101 (DR51) = HLA-DR DRB5*0101 (DR51) (Homo sapiens, UniProt P01903+Q30154); details: DRB5 *0101
# HLA-DR DRB1*1501 (DR15) = HLA-DR DRB1*1501 (DR15) (Homo sapiens, UniProt P01903+P01911); details: DRBI *1501
# HLA-DR DRB1*0401 (DR4) = HLA-DR DRB1*0401 (DR4) (Homo sapiens, UniProt P01903+P01911, A100K/A169T/F76Y/I96L/K127E/L162R/M171V/N62H/P40V/Q125Y/R42H/S133A/S149N/S66Y/V115G/V209L/W38E); details: DRB1 *0401
# HLA-DR DRB1*1302 (DR13) = HLA-DR DRB1*1302 (DR13) (Homo sapiens, UniProt P01903+P01911, A100E/A169T/K41T/L162R/M171V/P40S/Q125H/Q178H/Q39Y/Q99D/R42S/S66N/T262R/V115G/W38E/Y61H); details: DRBI *1302
# HLA-A*1101 = HLA-A*1101 (Homo sapiens, UniProt P04439, A114D/D185E/E176A/F33Y/L180Q/S129P/T187R)
# HLA-A*0301 = HLA-A*0301 (Homo sapiens, UniProt P04439)
# HLA-A*3101 = HLA-A*3101 (Homo sapiens, UniProt P04439, A270S/D185E/E176V/E277Q/F33T/G231S/G80R/H175R/I121M/I218V/I322F/K168Q/L300P/L318F/M331R/P217A/Q94H/R138Q/T323A/T345S/T97I/V358M); details: read-out: A*3101 binding affinity (IC50)
# [1] = read-out: A*1101 binding affinity (IC50)
# [2] = read-out: A*0301 binding affinity (IC50)
# Chain of HLA-DR DRB1*1302 (DR13) (P01903 26-254 limits assumed, other chains not shown): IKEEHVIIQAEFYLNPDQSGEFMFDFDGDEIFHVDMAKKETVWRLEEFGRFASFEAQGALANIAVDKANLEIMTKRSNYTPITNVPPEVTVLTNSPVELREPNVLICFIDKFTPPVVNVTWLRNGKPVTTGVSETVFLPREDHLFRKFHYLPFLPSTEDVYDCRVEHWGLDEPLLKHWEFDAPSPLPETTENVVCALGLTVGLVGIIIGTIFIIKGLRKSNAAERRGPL
# Chain of HLA-DR DRB1*0301 (DR3) (P01903 26-254 limits assumed, other chains not shown): as above
# Chain of HLA-DR DRB1*1101 (DR11) (P01903 26-254 limits assumed, other chains not shown): as above
Molecule,IC50 (HLA-DR DRB1*0802 (DR8)),IC50 (HLA-DR DRB1*0101 (DR1)),IC50 (HLA-DR DRB1*0301 (DR3)),IC50 (HLA-DR DRB1*0901 (DR9)),IC50 (HLA-DR DRB3*0101 (DR52)),IC50 (HLA-DR DRB1*1101 (DR11)),IC50 (HLA-DR DRB4*0101 (DR53)),IC50 (HLA-DR DRB1*0701 (DR7)),IC50 (HLA-DR DRB5*0101 (DR51)),IC50 (HLA-DR DRB1*1501 (DR15)),IC50 (HLA-DR DRB1*0401 (DR4)),IC50 (HLA-DR DRB1*1302 (DR13)),IC50 (HLA-A*1101; [1]),IC50 (HLA-A*1101),IC50 (HLA-A*0301),IC50 (HLA-A*3101),IC50 (HLA-A*0301; [2])
CSCC[C@H](NC(=O)[C@@H]1CCCN1C(=O)[C@@H](N)CC(=O)O)C(=O)N[C@@H](Cc1ccccc1)C(=O)N[C@@H](CCCCN)C(=O)N[C@@H](Cc1ccc(O)cc1)C(=O)N[C@@H](Cc1c[nH]cn1)C(=O)N[C@@H](CC(C)C)C(=O)N[C@H](C(=O)N[C@H](C(=O)N[C@@H](C)C(=O)N[C@@H](CCC(N)=O)C(=O)N[C@H](C(=O)N[C@@H](CCCNC(=N)N)C(=O)NCC(=O)O)C(C)C)C(C)C)[C@@H](C)O,0.043 µM,5.7 nM,> 75000 nM,258 nM,7.3 µM,69 nM,467 nM,168 nM,11 nM,230 nM,9.1 nM,699 nM,–,–,–,–,–
CC[C@H](C)[C@H](NC(=O)[C@H](CCCCN)NC(=O)[C@H](CCSC)NC(=O)[C@H](CC(=O)O)NC(=O)[C@H](CCCNC(=N)N)NC(=O)[C@H](CCC(=O)O)NC(=O)[C@H](CC(C)C)NC(=O)[C@H](CCCCN)NC(=O)[C@H](Cc1ccccc1)NC(=O)[C@@H](N)Cc1ccccc1)C(=O)N[C@@H](CC(N)=O)C(=O)N[C@@H](CS)C(=O)N[C@@H](CO)C(=O)NCC(=O)N[C@@H](CCCCN)C(=O)O,8.11 µM,4420 nM,121 nM,> 52300 nM,4.92 µM,9690 nM,98 nM,> 23100 nM,3800 nM,> 3490 nM,483 nM,382 nM,–,–,–,–,–
CC[C@H](C)[C@H](NC(=O)[C@H](CO)NC(=O)[C@H](CC(N)=O)NC(=O)[C@H](C)NC(=O)[C@H](CC(C)C)NC(=O)[C@H](CCC(=O)O)NC(=O)[C@H](Cc1ccccc1)NC(=O)[C@@H](NC(=O)[C@H](CCSC)NC(=O)CN)C(C)C)C(=O)N[C@H](C(=O)N[C@@H](CC(C)C)C(=O)N1CCC[C@H]1C(=O)N[C@@H](Cc1ccccc1)C(=O)N[C@@H](CC(=O)O)C(=O)O)C(C)C,5 µM,15 nM,4600 nM,81 nM,0.234 µM,> 50000 nM,4150 nM,30 nM,903 nM,83 nM,230 nM,12 nM,–,–,–,–,–
CSCC[C@H](NC(=O)[C@H](CC(C)C)NC(=O)[C@H](CC(=O)O)NC(=O)[C@@H](N)Cc1c[nH]cn1)C(=O)N[C@@H](CC(C)C)C(=O)N[C@@H](CC(C)C)C(=O)N[C@@H](CCCNC(=N)N)C(=O)N[C@@H](CC(C)C)C(=O)N[C@@H](CO)C(=O)N[C@@H](CCC(=O)O)C(=O)N1CCC[C@H]1C(=O)N[C@@H](C)C(=O)N[C@@H](CCC(=O)O)C(=O)N[C@@H](CC(C)C)C(=O)N[C@H](C(=O)O)[C@@H](C)O,3.91 µM,62 nM,2870 nM,22 nM,5.31 µM,2140 nM,45 nM,152 nM,10500 nM,662 nM,6190 nM,2.3 nM,–,–,–,–,–
CC[C@H](C)[C@H](NC(=O)[C@H](Cc1c[nH]c2ccccc12)NC(=O)[C@H](CCCCN)NC(=O)[C@H](CCCNC(=N)N)NC(=O)[C@H](Cc1ccc(O)cc1)NC(=O)[C@H](Cc1c[nH]cn1)NC(=O)[C@@H](NC(=O)[C@@H](NC(=O)[C@H](CCCCN)NC(=O)[C@@H](NC(=O)[C@H](Cc1ccc(O)cc1)NC(=O)[C@H](CC(C)C)NC(=O)[C@H](CO)NC(=O)[C@@H]1CCCN1C(=O)[C@@H](N)CCCNC(=N)N)[C@@H](C)O)C(C)C)C(C)C)C(=O)O,0.039 µM,6040 nM,53800 nM,5480 nM,2.98 µM,350 nM,4900 nM,652 nM,13 nM,717 nM,339 nM,4180 nM,–,–,–,–,–
CC[C@H](C)[C@H](NC(=O)[C@H](CO)NC(=O)[C@H](CO)NC(=O)[C@H](CC(=O)O)NC(=O)[C@H](C)NC(=O)[C@H](CC(N)=O)NC(=O)[C@@H](NC(=O)[C@H](Cc1ccc(O)cc1)NC(=O)[C@H](C)NC(=O)[C@@H](N)C(C)C)[C@@H](C)CC)C(=O)N[C@@H](CCC(=O)O)C(=O)NCC(=O)N[C@@H](CC(N)=O)C(=O)N[C@@H](Cc1ccc(O)cc1)C(=O)N[C@H](C(=O)O)[C@@H](C)O,106 µM,4720 nM,531 nM,5470 nM,0.471 µM,> 18900 nM,841 nM,9740 nM,> 37800 nM,> 3490 nM,411 nM,2150 nM,–,–,–,–,–
AAMXDPTTFK,–,–,–,–,–,–,–,–,–,–,–,–,7.2 nM,–,–,–,–
ALAAGAAAK,–,–,–,–,–,–,–,–,–,–,–,–,–,37 nM,19 nM,–,–
ALGWRSRRR,–,–,–,–,–,–,–,–,–,–,–,–,9750 nM,–,–,72 nM,–
FTDLTIVYK,–,–,–,–,–,–,–,–,–,–,–,–,–,16 nM,557 nM,–,–
GTMTTSXYK,–,–,–,–,–,–,–,–,–,–,–,–,4.5 nM,–,–,–,–
GTTLEKLTNR,–,–,–,–,–,–,–,–,–,–,–,–,–,1720 nM,3600 nM,–,–
HPQWVLTAAHCLKKN,1.69 µM,22 nM,1100 nM,822 nM,8.11 µM,981 nM,1110 nM,563 nM,11 nM,1220 nM,875 nM,483 nM,–,–,–,–,–
HTCNTIYR,–,–,–,–,–,–,–,–,–,–,–,–,–,–,–,726 nM,4860 nM
IFISEYLINK,–,–,–,–,–,–,–,–,–,–,–,–,–,–,–,462 nM,1990 nM
KVSEYRTYNY,–,–,–,–,–,–,–,–,–,–,–,–,110 nM,–,–,–,349 nM
